Assay results published in US20260224534A1, “ALPHA-2-ADRENERGIC AGONISTS FOR IMPROVING VISION” (Bausch + Lomb Ireland Limited, priority 2023, published 2026).

Legend:
Format in all cases: in vivo, human
[1] = system: patients with glaucoma or ocular hypertension; assay: Phase 1/2 study Part 2: low-luminance ETDRS visual acuity
Description: Low-luminance visual acuity refers to visual acuity determined using the standard Early Treatment Diabetic Retinopathy Study (ETDRS) chart with a 2.0 log unit neutral density filter placed in front of the eye.
(§1) Part 1 was an open-label dose escalation study. The purpose of Part 1 of this study (WB007-001), was to assess the safety, tolerability, and IOP-lowering effects of a single drop of an ophthalmic solution containing [3-[(1S)-1-(1H-imidazole-5-yl)ethyl]-2-methylphenyl]methyl-2,2-dimethylpropanoate (Compound 1) with concentrations ranging from 0.05% to 0.4%. […] In addition to assessing the efficacy of Compound 1 on lowering IOP, the study also assessed the effects of the drug on visual function.
Additional analyses examining the effect of Compound 1 on visual function included low-luminance visual acuity and visual fields.

[2] = system: patients with glaucoma or ocular hypertension; assay: Phase 1/2 study Part 2: double-masked, randomized, active controlled, ocular hypotensive efficacy (IOP), twice daily; settings: for mean change from baseline in IOP, primary endpoint: Part 2, Day 14, Hour 2, study eye; for IOP-lowering effect, mean change from baseline in the study eye at all postbaseline timepoints: Part 2, both Compound 1 groups (0.15%, 0.4%) p≤0.007, Timolol p≤0.004
[3] = system: patients with glaucoma or ocular hypertension; assay: Phase 1/2 study Part 2: pupil size
Description: as §1
The effect of Compound 1 on pupil size was assessed at the baseline visit and on Day 14.

[4] = system: patients with glaucoma or ocular hypertension; assay: Phase 1/2 study Part 2: visual field mean deviation; settings: for visual field change in mean deviation: non-study eye, Day 14; for visual field mean deviation change from Baseline at Day 14: study eyes, positive change = improvement; for Improvement ≥1 dB in Study Eye, number of patients / Improvement ≥1 dB in Study Eye, percentage of patients / Improvement ≥1 dB in Treated Non-Study Eye, number of patients / Improvement ≥1 dB in Treated Non-Study Eye, percentage of patients: visual field
[5] = system: patients with glaucoma or ocular hypertension; assay: Phase 1/2 study: safety, tolerability and comfort; settings: both doses (0.15%, 0.4%)
Description: as §1

CC(C)(C)NC[C@H](O)COc1nsnc1N1CCOCC1 [Timolol, timolol, reference compound]
percentage of subjects achieving an increase in ETDRS visual acuity of 15 or more letters under low luminance on at least one study visit ([1]; non-study eye, timolol 0.5%): 8.3%
percentage of subjects achieving an increase in ETDRS visual acuity of 15 or more letters under low luminance on at least one study visit ([1]; study eye, timolol 0.5%): 0%
mean change from baseline in IOP, primary endpoint ([2]; 0.5% timolol ophthalmic solution): −6.0±3.0 mm Hg
IOP-lowering effect, mean change from baseline in the study eye at all postbaseline timepoints [2]: statistically significant IOP-lowering effects
mean change in pupil size from Baseline to Day 14 at Hour 0 ([3]; study eyes, Timolol 0.5%): −0.1 mm
mean change in pupil size from Baseline to Day 14 at Hour 0 ([3]; treated non-study eyes, Timolol 0.5%): −0.1 mm
visual field change in mean deviation ([4]; Timolol 0.5%): −2.0±3.4 dB
visual field mean deviation change from Baseline at Day 14 ([4]; Timolol 0.5%): −1.2±2.3 dB
Improvement ≥1 dB in Study Eye, number of patients ([4]; Timolol 0.5%): 2 patients
Improvement ≥1 dB in Study Eye, percentage of patients ([4]; Timolol 0.5%): 17%
Improvement ≥1 dB in Treated Non-Study Eye, number of patients ([4]; Timolol 0.5%): 0 patients (0%)
Improvement ≥1 dB in Treated Non-Study Eye, percentage of patients ([4]; Timolol 0.5%): 0 patients (0%)

Cc1c(COC(=O)C(C)(C)C)cccc1[C@H](C)c1c[nH]cn1 [Compound 1, [3-[(1S)-1-(1H-imidazole-5-yl)ethyl]-2-methylphenyl]methyl-2,2-dimethylpropanoate]
percentage of subjects achieving an increase in ETDRS visual acuity of 15 or more letters under low luminance on at least one study visit ([1]; non-study eye, 0.15%): 17.4%
percentage of subjects achieving an increase in ETDRS visual acuity of 15 or more letters under low luminance on at least one study visit ([1]; non-study eye, 0.4%): 25.0%
effect on low luminance visual acuity ([1]; patients receiving 0.15% or 0.4%): Dose related improvements in low luminance visual acuity
percentage of subjects achieving an increase in ETDRS visual acuity of 15 or more letters under low luminance on at least one study visit ([1]; study eye, 0.15%): 8.7%
percentage of subjects achieving an increase in ETDRS visual acuity of 15 or more letters under low luminance on at least one study visit ([1]; study eye, 0.4%): 16.7%
mean change from baseline in IOP, primary endpoint ([2]; 0.15% twice daily): −4.9±1.8 mm Hg
mean change from baseline in IOP, primary endpoint ([2]; 0.4% twice daily): −5.1±2.5 mm Hg
IOP-lowering effect, mean change from baseline in the study eye at all postbaseline timepoints [2]: statistically significant IOP-lowering effects
effect on pupil size ([3]; either dose (0.15%, 0.4%)): no meaningful decrease in pupil size
mean change in pupil size from Baseline to Day 14 at Hour 0 ([3]; study eyes, 0.15%): 0.0 mm
mean change in pupil size from Baseline to Day 14 at Hour 0 ([3]; study eyes, 0.4%): −0.1 mm
mean change in pupil size from Baseline to Day 14 at Hour 0 ([3]; treated non-study eyes, 0.15%): 0.0 mm
mean change in pupil size from Baseline to Day 14 at Hour 0 ([3]; treated non-study eyes, 0.4%): −0.1 mm
visual field change in mean deviation ([4]; 0.15%): 0.4±1.5 dB
visual field change in mean deviation ([4]; 0.4%): −0.2±1.4 dB
visual field mean deviation change from Baseline at Day 14 ([4]; 0.15%): 0.2±1.2 dB
visual field mean deviation change from Baseline at Day 14 ([4]; 0.4%): −0.5±2.3 dB
Improvement ≥1 dB in Study Eye, number of patients ([4]; 0.15%): 9 patients
Improvement ≥1 dB in Study Eye, percentage of patients ([4]; 0.15%): 39%
Improvement ≥1 dB in Treated Non-Study Eye, number of patients ([4]; 0.15%): 7 patients
Improvement ≥1 dB in Treated Non-Study Eye, percentage of patients ([4]; 0.15%): 30%
Improvement ≥1 dB in Study Eye, number of patients ([4]; 0.4%): 6 patients
Improvement ≥1 dB in Study Eye, percentage of patients ([4]; 0.4%): 25%
Improvement ≥1 dB in Treated Non-Study Eye, number of patients ([4]; 0.4%): 6 patients
Improvement ≥1 dB in Treated Non-Study Eye, percentage of patients ([4]; 0.4%): 25%
safety and tolerability [5]: safe and well-tolerated
